In the experiment the test system is BDF1 mice, Adenocarcinoma 755 s.c., tumor weight T/C. The experiment in a line: NCI In Vivo Anticancer Drug Screen. Data for tumor model Adenocarcinoma 755 (subcutaneous) in B6D2F1 (BDF1) mice. The settings on record: endpoint: mean tumor weight, higher = larger tumour. In short, it runs like this: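 Values express treated (T) relative to vehicle-dosed control (C) animals, based on survival or tumour size measured after compound treatment of mice bearing a transplanted tumour.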

The mark [1] stands for this setting: dose: 12.5 mg/kg/injection, schedule: Q01DX011 (ip), vehicle: methylcellulose (MC).
[2] abbreviates: dose: 25.0 mg/kg/injection, schedule: Q01DX011 (ip), vehicle: methylcellulose (MC).
[3] abbreviates: dose: 2.0 mg/kg/injection, schedule: Q01DX011 (ip), vehicle: saline.
Setting [4] is: dose: 50.0 mg/kg/injection, schedule: Q01DX011 (ip), vehicle: carboxymethylcellulose (CMC).
[5] abbreviates: dose: 50.0 mg/kg/injection, schedule: Q01DX011 (ip), vehicle: methylcellulose (MC).
Setting [6] is: dose: 100.0 mg/kg/injection, schedule: Q01DX011 (ip), vehicle: carboxymethylcellulose (CMC).
[7] abbreviates: dose: 200.0 mg/kg/injection, schedule: Q01DX011 (ip), vehicle: carboxymethylcellulose (CMC).
Setting [8] is: dose: 50.0 mg/kg/injection, schedule: Q01DX011 (ip), vehicle: saline.
[9] abbreviates: dose: 75.0 mg/kg/injection, schedule: Q01DX011 (ip), vehicle: carboxymethylcellulose (CMC).
[10] abbreviates: dose: 225.0 mg/kg/injection, schedule: Q01DX011 (ip), vehicle: carboxymethylcellulose (CMC).

Structures are written as SMILES. “And” between values parts separate entries of the source, which are not always exact repeats. Equal values may be shown once.

What is called T/C is the result in the treated group divided by that in the control group, in per cent. Turning to `CNS(=O)(=O)c1ncnc2nc[nH]c12`, the T/C reads like this: (dose: 3.1 mg/kg/injection, schedule: Q01DX011 (ip), vehicle: methylcellulose (MC)) 77 % of control; (dose: 6.2 mg/kg/injection, schedule: Q01DX011 (ip), vehicle: methylcellulose (MC)) 36 % of control; (dose: 8.0 mg/kg/injection, schedule: Q01DX011 (ip), vehicle: carboxymethylcellulose (CMC)) 51 % of control; (dose: 10.0 mg/kg/injection, schedule: Q01DX011 (ip), vehicle: carboxymethylcellulose (CMC)) 20 % of control; under setting [1], 44 % of control; (dose: 15.0 mg/kg/injection, schedule: Q01DX011 (ip), vehicle: carboxymethylcellulose (CMC)) 28 % of control. The T/C (dose: 20.0 mg/kg/injection, schedule: Q01DX011 (ip), vehicle: carboxymethylcellulose (CMC)) was 2 % of control; the T/C under setting [2] is 5 % of control; the T/C (dose: 30.0 mg/kg/injection, schedule: Q01DX011 (ip), vehicle: carboxymethylcellulose (CMC)) is 16 % of control; the T/C (dose: 40.0 mg/kg/injection, schedule: Q01DX011 (ip), vehicle: carboxymethylcellulose (CMC)) was 2 % of control.

Regarding `CCCCOP(=O)(N1CC1C)N1CC1C` (stereo unspecified), the T/C was 92 % of control and 96 % of control and 114 % of control under setting [3]; 25 % of control (dose: 32.0 mg/kg/injection, schedule: Q01DX011 (ip), vehicle: saline).

With `CCCCNc1nc(N)nc(Nc2ccc(Br)cc2)c1N=O`, the T/C by setting is: under setting [4], 18 % of control; under setting [5], 46 % of control; under setting [6], 30 % of control; (dose: 100.0 mg/kg/injection, schedule: Q01DX011 (ip), vehicle: methylcellulose (MC)) 44 % of control; under setting [7], 53 % of control; (dose: 200.0 mg/kg/injection, schedule: Q01DX011 (ip), vehicle: methylcellulose (MC)) 40 % of control. The T/C reads like this: (dose: 400.0 mg/kg/injection, schedule: Q01DX011 (ip), vehicle: methylcellulose (MC)) 47 % of control; (dose: 800.0 mg/kg/injection, schedule: Q01DX011 (ip), vehicle: carboxymethylcellulose (CMC)) 23 % of control.

With `O=C(O)CCC(=O)NO`, the T/C is, setting by setting: under setting [4], 96 % of control; under setting [6], 98 % of control; under setting [7], 84 % of control.

For `C[C@]12CCCC[C@@H]1CC[C@@H]1[C@@H]2[C@@H](O)C[C@]2(C)[C@@H](N)CC[C@@H]12`, the T/C is, setting by setting: (dose: 22.0 mg/kg/injection, schedule: Q01DX011 (sc), vehicle: steriod suspending solution) 106 % of control; (dose: 44.0 mg/kg/injection, schedule: Q01DX011 (sc), vehicle: steriod suspending solution) 74 % of control.

`O=[N+]([O-])O.[Ga]`: the T/C runs as follows: (dose: 12.5 mg/kg/injection, schedule: Q01DX011 (ip), vehicle: saline) 20 % of control; (dose: 25.0 mg/kg/injection, schedule: Q01DX011 (ip), vehicle: saline) 24 % of control; under setting [8], 7 % of control.

With `Cn1c2c(sc1=O)CCC2`, the T/C runs as follows: (dose: 88.0 mg/kg/injection, schedule: Q01DX011 (ip), vehicle: methylcellulose (MC)) 54 % of control; (dose: 175.0 mg/kg/injection, schedule: Q01DX011 (ip), vehicle: methylcellulose (MC)) 80 % of control.

Consider `CC(CNC(=O)CCBr)NC(=O)CCBr` (stereo unspecified), for which the T/C is 79 % of control and 81 % of control (dose: 37.5 mg/kg/injection, schedule: Q01DX011 (ip), vehicle: carboxymethylcellulose (CMC)); 26 % of control and 36 % of control under setting [9]; 10 % of control and 19 % of control (dose: 150.0 mg/kg/injection, schedule: Q01DX011 (ip), vehicle: carboxymethylcellulose (CMC)).

Turning to `CCN(CC)P(=O)(N1CC1)N1CC1`, the T/C is, setting by setting: (dose: 0.5 mg/kg/injection, schedule: Q01DX011 (ip), vehicle: saline) 60 % of control; (dose: 1.0 mg/kg/injection, schedule: Q01DX011 (ip), vehicle: saline) 68 % of control; (dose: 2.0 mg/kg/injection, schedule: Q01DX011 (ip), vehicle: other) 50 % of control; under setting [3], 43 % of control and 47 % of control; (dose: 4.0 mg/kg/injection, schedule: Q01DX011 (ip), vehicle: other) 26 % of control; (dose: 4.0 mg/kg/injection, schedule: Q01DX011 (ip), vehicle: saline) 18 % of control and 39 % of control. Further, the T/C was 14 % of control (dose: 8.0 mg/kg/injection, schedule: Q01DX011 (ip), vehicle: other) and 10 % of control (dose: 8.0 mg/kg/injection, schedule: Q01DX011 (ip), vehicle: saline).

With `CCOC(=O)CN=NNc1nc[nH]c1C(N)=O`, the T/C runs as follows: (dose: 56.0 mg/kg/injection, schedule: Q01DX011 (ip), vehicle: carboxymethylcellulose (CMC)) 58 % of control; (dose: 112.0 mg/kg/injection, schedule: Q01DX011 (ip), vehicle: carboxymethylcellulose (CMC)) 106 % of control; (dose: 175.0 mg/kg/injection, schedule: Q01DX011 (ip), vehicle: carboxymethylcellulose (CMC)) 81 % of control; under setting [10], 27 % of control; (dose: 350.0 mg/kg/injection, schedule: Q01DX011 (ip), vehicle: carboxymethylcellulose (CMC)) 58 % of control.

As for `CCCn1cnc2c(SCc3ccccc3Cl)nc(N)nc21`, the T/C was 85 % of control (dose: 0.78 mg/kg/injection, schedule: Q01DX011 (ip), vehicle: methylcellulose (MC)); 72 % of control (dose: 1.56 mg/kg/injection, schedule: Q01DX011 (ip), vehicle: methylcellulose (MC)); 70 % of control (dose: 3.0 mg/kg/injection, schedule: Q01DX011 (ip), vehicle: carboxymethylcellulose (CMC)); 62 % of control (dose: 3.12 mg/kg/injection, schedule: Q01DX011 (ip), vehicle: methylcellulose (MC)); 47 % of control (dose: 6.0 mg/kg/injection, schedule: Q01DX011 (ip), vehicle: carboxymethylcellulose (CMC)); 60 % of control (dose: 6.25 mg/kg/injection, schedule: Q01DX011 (ip), vehicle: methylcellulose (MC)). Besides, the T/C is 45 % of control (dose: 12.0 mg/kg/injection, schedule: Q01DX011 (ip), vehicle: carboxymethylcellulose (CMC)); 43 % of control under setting [1]; 17 % of control (dose: 24.0 mg/kg/injection, schedule: Q01DX011 (ip), vehicle: carboxymethylcellulose (CMC)); 7 % of control under setting [2]; 4 % of control (dose: 48.0 mg/kg/injection, schedule: Q01DX011 (ip), vehicle: carboxymethylcellulose (CMC)); 2 % of control (dose: 96.0 mg/kg/injection, schedule: Q01DX011 (ip), vehicle: carboxymethylcellulose (CMC)). The T/C (dose: 190.0 mg/kg/injection, schedule: Q01DX011 (ip), vehicle: carboxymethylcellulose (CMC)) is 3 % of control; the T/C (dose: 192.0 mg/kg/injection, schedule: Q01DX011 (ip), vehicle: carboxymethylcellulose (CMC)) was 1 % of control; the T/C (dose: 380.0 mg/kg/injection, schedule: Q01DX011 (ip), vehicle: carboxymethylcellulose (CMC)) is 4 % of control.

As to `Nc1nc2nc(/N=N/SCCO)[nH]c2c(=O)[nH]1`, the T/C reads like this: under setting [2], 65 % of control; under setting [5], 39 % of control.

Turning to `Nc1nc(S(N)(=O)=O)nc2nc[nH]c12`, the T/C was 57 % of control (dose: 25.0 mg/kg/injection, schedule: Q01DX011 (ip), vehicle: carboxymethylcellulose (CMC)); 82 % of control under setting [9]; 72 % of control under setting [10].

As to `O=c1[nH]cc(C(F)(F)F)c(=O)[nH]1`, the T/C reads like this: under setting [8], 53 % of control; (dose: 100.0 mg/kg/injection, schedule: Q01DX011 (ip), vehicle: saline) 65 % of control; (dose: 200.0 mg/kg/injection, schedule: Q01DX011 (ip), vehicle: saline) 38 % of control and 57 % of control; (dose: 300.0 mg/kg/injection, schedule: Q01DX011 (ip), vehicle: saline) 40 % of control and 56 % of control; (dose: 400.0 mg/kg/injection, schedule: Q01DX011 (ip), vehicle: saline) 32 % of control and 34 % of control; (dose: 500.0 mg/kg/injection, schedule: Q01DX011 (ip), vehicle: saline) 56 % of control and 65 % of control. For the same compound, the T/C (dose: 600.0 mg/kg/injection, schedule: Q01DX011 (ip), vehicle: saline) was 37 % of control.

`CCC(C)Cn1cnc2c(=O)[nH]c(N)nc21` (stereo unspecified): the T/C is 75 % of control (dose: 37.5 mg/kg/injection, schedule: Q01DX011 (ip), vehicle: methylcellulose (MC)); 49 % of control (dose: 75.0 mg/kg/injection, schedule: Q01DX011 (ip), vehicle: methylcellulose (MC)); 67 % of control (dose: 150.0 mg/kg/injection, schedule: Q01DX011 (ip), vehicle: methylcellulose (MC)).
